The target in data set [1] is T1, ileum muscarine receptors (Cavia porcellus, UniProt H0W1Z3).
T1 construct: The ileum was removed to make a 1.5 to 2 cm preparation; from tissue; host or cells: isolated ileum of Hartley male guinea pig
The experiment in a line: Antagonism on the acetylcholine-induced contraction of ileum (in vitro test). The following applies: guinea pig ileum, Schild plot, acetylcholine 10^-9 M~3×10^-6 M, 28° C., read-out: pA2 Ileum (converted). The method, then: 1. Antagonism on the acetylcholine-induced contraction of ileum (in vitro test)
Hartley male guinea pig was killed by stunning and bleeding. The ileum was removed to make a 1.5 to 2 cm preparation. The preparation was mounted in a 10 ml organ bath filled with Tyrode's solution of 28° C. that was bubbled with 95% O2 /5% CO2. The initial resting tension of 1 g was applied to the preparation and measurement of isomeric muscle tension was recorded.
(§1) The action of testing drug is shown in terms of pA2 determined from Schild plot of the extent of right shift of the concentration-response curve on 10^-9 M~3×10^-6 M of acetylcholine.

Data set [2] has as its target T2, sphincter muscle of the pupil (Oryctolagus cuniculus, UniProt G1U308).
T2 construct: The eyeball was removed to make a preparation of sphincter muscle of the pupil; from tissue; host or cells: isolated pupillary sphincter muscle of Japanese white male rabbit
The data set is described as follows: Antagonism on the acetylcholine-induced contraction of pupil (in vitro test). As to conditions: rabbit sphincter muscle of the pupil, Schild plot, acetylcholine 10^-6 M~10^-2 M, 30° C., read-out: pA2 Pupil (converted). On the procedure:
2. Antagonism on the acetylcholine-induced contraction of pupil (in vitro test)
Japanese white male rabbit was anesthetized using sodium pentobarbital and killed by bleeding. The eyeball was removed to make a preparation of sphincter muscle of the pupil. The preparation was mounted in a 10 ml organ bath filled with Krebs solution of 30° C. that was bubbled with 95% O2 /5% CO2. The initial resting tension of 0.2 g was applied to the preparation and measurement of isometric muscle tension was recorded.
The action of testing drug is shown in terms of pA2 determined from Schild plot of the extent of right shift of the concentration-response curve on 10^-6 M~10^-2 M of acetylcholine.

The target in data set [3] is T3, heart muscarine receptors (Cavia porcellus, UniProt H0VRN8).
T3 construct: The heart was removed to make a preparation of atrium of heart; from tissue; host or cells: isolated atrium of Hartley male guinea pig
T3 sequence (H0VRN8 1-466): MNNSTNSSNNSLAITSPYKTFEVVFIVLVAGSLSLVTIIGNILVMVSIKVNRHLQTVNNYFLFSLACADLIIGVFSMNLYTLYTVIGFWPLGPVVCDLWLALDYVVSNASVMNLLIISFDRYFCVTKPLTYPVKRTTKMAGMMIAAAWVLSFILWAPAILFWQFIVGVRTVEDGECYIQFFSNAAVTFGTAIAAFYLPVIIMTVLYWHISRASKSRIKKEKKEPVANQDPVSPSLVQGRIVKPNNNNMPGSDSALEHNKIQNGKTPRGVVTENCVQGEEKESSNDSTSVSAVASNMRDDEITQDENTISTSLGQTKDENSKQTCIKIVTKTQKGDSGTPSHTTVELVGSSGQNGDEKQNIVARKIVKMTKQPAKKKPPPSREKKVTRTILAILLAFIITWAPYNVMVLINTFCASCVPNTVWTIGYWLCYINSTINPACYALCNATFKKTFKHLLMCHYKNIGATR
The experiment in a line: Antagonism action on the acetylcholine-induced negative chronotropic action of atrium of heart (in vitro test). The following applies: guinea pig atrium of heart, Schild plot, acetylcholine 10^-9 M~3×10^-6 M, 32° C., read-out: pA2 Atrium (converted). The method, then: 3. Antagonism action on the acetylcholine-induced negative chronotropic action of atrium of heart (in vitro test)
Hartley male guinea pig was killed by stunning and bleeding. The heart was removed to make a preparation of atrium of heart. The preparation was mounted in a 10 ml organ bath filled with Krebs-Henseleit solution of 32° C. that was bubbled with 95% O2 /5% CO2. The initial resting tension was made to be 0.5 g and measurement of isometric muscle tension was recorded.
as §1

Data set [4] relates to defecation model under restraint stress. The data set is described as follows: Inhibitory effect in the defecation model under restraint stress (in vivo test). The following applies: Wistar male rats; 10 mg/kg orally, restraint stress 30 minutes later; defecation measured after 1 hour. The arrangement: species or system rat. The method, then: (§2) 4. Inhibitory effect in the defecation model under restraint stress (in vivo test)
(§3) Wistar strain male rats were employed. Testing drug was administered orally at 10 mg/kg and, after 30 minutes, the restraint stress was given by fixing the forefeet of rat on back side under anesthetization with ether. Moreover, the diameter of pupil (mm) was also measured.
(§4) After allowed to stand for 1 hour in separate cage, the defecation level and diameter of pupil were measured.
The inhibitory rate of defecation was determined from following formula.

The next data set deals with pupil. The experiment in a line: Diameter of pupil in the restraint stress model (in vivo test). The arrangement: species or system rat. As to conditions: Wistar male rats, 10 mg/kg orally. The method, then: as §2, §3, §4

Each structure is given as a SMILES string.

T2 sequence (G1U308 entry or part of it): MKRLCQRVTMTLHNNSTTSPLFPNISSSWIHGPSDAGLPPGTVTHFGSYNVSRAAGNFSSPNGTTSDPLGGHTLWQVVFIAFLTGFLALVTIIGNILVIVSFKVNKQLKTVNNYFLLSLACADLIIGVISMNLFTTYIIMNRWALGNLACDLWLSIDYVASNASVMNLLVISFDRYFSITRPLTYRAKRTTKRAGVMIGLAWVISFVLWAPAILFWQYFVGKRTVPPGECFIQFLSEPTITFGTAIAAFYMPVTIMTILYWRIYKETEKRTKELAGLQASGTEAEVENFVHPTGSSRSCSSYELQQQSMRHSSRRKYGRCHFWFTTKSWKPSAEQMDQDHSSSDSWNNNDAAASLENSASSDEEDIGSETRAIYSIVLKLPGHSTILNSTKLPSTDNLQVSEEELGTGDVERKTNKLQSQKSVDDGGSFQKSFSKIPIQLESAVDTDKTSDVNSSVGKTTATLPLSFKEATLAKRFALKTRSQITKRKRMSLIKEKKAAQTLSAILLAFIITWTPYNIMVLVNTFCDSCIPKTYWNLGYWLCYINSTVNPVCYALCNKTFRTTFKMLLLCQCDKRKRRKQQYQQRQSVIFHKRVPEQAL
T1 sequence (H0W1Z3 1-590): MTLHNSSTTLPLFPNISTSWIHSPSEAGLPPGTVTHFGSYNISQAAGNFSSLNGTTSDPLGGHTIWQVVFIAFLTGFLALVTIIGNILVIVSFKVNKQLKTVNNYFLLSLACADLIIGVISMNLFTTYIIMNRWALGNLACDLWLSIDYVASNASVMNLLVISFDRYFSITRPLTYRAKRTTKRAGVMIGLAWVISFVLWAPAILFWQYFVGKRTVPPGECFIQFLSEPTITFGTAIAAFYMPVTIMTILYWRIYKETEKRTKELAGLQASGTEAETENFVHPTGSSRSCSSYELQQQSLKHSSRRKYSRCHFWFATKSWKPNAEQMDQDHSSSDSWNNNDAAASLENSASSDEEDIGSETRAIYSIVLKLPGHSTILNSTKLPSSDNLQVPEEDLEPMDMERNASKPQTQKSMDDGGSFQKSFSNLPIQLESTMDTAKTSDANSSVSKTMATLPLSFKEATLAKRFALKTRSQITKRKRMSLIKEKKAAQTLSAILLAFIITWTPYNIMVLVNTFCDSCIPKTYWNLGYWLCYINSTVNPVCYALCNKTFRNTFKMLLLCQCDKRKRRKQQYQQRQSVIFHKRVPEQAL

For the compound `NC(=O)C(CCN1CCC(OCc2cccc(Cl)c2)C1)(c1ccccc1)c1ccccc1` (stereo not drawn) [Example 9, 4-[3-(3-chlorobenzyloxy)pyrrolidine-1-yl]-2,2-diphenylbutaneamide], the Kb was 25.1 nM in data set [1], 50.1 nM in data set [2] and 631 nM in data set [3]. In addition, the “Inhibitory rate of defecation (%)” value in data set [4] is listed as 48.9%. The “Diameter of pupil (mm), Immediately after restraint” value in the data set on pupil (Control 0.44) turned out to be 0.43 mm. The “Diameter of pupil (mm), After restraint” value with pupil (after 1 hour, Control 0.48) worked out at 0.45 mm.

The values are drawn from patent US6071950A, “N-substituted pyrrolidine derivatives and process for preparing the same” (Kyorin Pharmaceutical Co., Ltd., priority 1996, dated 2000).
